Experimental findings from ChEMBL document CHEMBL1127553, “Derivatives of a novel cyclopeptolide. 2. Synthesis, activity against multidrug resistance in CHO and KB cells in vitro, and structure-activity relationships” (1994) are described below.

Molecules are shown by their SMILES. Non-standard residues stand in square brackets, D forms with d. Residues, ends and D or L forms follow the SMILES beside them. *: point of attachment. NMeI = CC[C@H](C)[C@H](NC)C(=O)O; NMeD = CN[C@@H](CC(=O)O)C(=O)O; NMeV = CN[C@H](C(=O)O)C(C)C; Pip = O=C(O)[C@@H]1CCCCN1; Lac = C[C@H](O)C(=O)O; OtBu = CC(C)(C)O*

Experiment [1] relates to CHO. Description: The sensitizing capacity for colchicine treatment of multi drug resistance (MDR) CHO cell at concentration 1.0(mg/L). It is filed as functional, Cricetulus griseus.
The subject of experiment [2] is CHO. Put plainly: The sensitizing capacity for colchicine treatment of multi drug resistance(MDR) in CHO cell at concentration 0.1(mg/L). It is filed as functional, Cricetulus griseus.
Experiment [3] relates to CHO. Description: Sensitization of colchicine treated parental (PAR)CHO cells, measured at concentration 0.1(mg/L). Format: functional, Cricetulus griseus.
Experiment [4] has as its system CHO. Put plainly: The sensitizing capacity for colchicine treatment of parental (PAR)CHO cells at concentration 1.0 (mg/L). It is filed as functional, Cricetulus griseus.
Experiment [5] concerns KB. Description: The sensitizing capacity of compound for colchicine treatment of multi drug resistance in KB cell was measured at concentration 1.0(mg/L). It is filed as functional, Homo sapiens.
The subject of experiment [6] is KB. Description: The sensitizing capacity of compound for colchicine treatment of multi drug resistance in KB cell was measured at concentration 3.0 (mg/L). It is filed as functional, Homo sapiens.

For `CC[C@@H](C)[C@H]1C(=O)NCC(=O)N(C)[C@@H](C(C)C)C(=O)N[C@@H](Cc2ccc(OC)cc2)C(=O)O[C@@H](C)C(=O)N2CCCC[C@H]2C(=O)N(C)[C@@H](C(C)C)C(=O)N[C@@H](C(C)C)C(=O)N(C)[C@H](CC(=O)NC(C)(C)C)C(=O)N(C)[C@@H]([C@@H](C)CC)C(=O)N1C`, the Activity in the experiment on CHO [1] is on record as 343; in the experiment on CHO [2], 70; with CHO [3] it was 8.4; with CHO [4], 12; in the experiment with KB [5] it was 1.5; in the experiment with KB [6], 113.

As for `CC[C@@H](C)[C@H]1C(=O)NCC(=O)N(C)[C@@H](C(C)C)C(=O)N[C@@H](Cc2ccc(OC)cc2)C(=O)O[C@H](C)C(=O)N2CCCC[C@H]2C(=O)N(C)[C@@H](C(C)C)C(=O)N[C@@H](C(C)C)C(=O)N(C)[C@H](CC(=O)N[C@H](C(=O)OC(C)(C)C)C(C)C)C(=O)N(C)[C@@H]([C@@H](C)CC)C(=O)N1C`, the Activity with CHO [1] is given as 187; in the experiment on CHO [2] it was 15; with CHO [3] it was 6; in the experiment on CHO [4], 8.5; in the experiment on KB [5], 1.2; with KB [6], 124.

Turning to `CC[C@H](C)[C@H]1C(=O)NCC(=O)N(C)[C@@H](C(C)C)C(=O)N[C@@H](Cc2ccc(OC)cc2)C(=O)O[C@@H](C)C(=O)N2CCCC[C@H]2C(=O)N(C)[C@@H](C(C)C)C(=O)N[C@@H](C(C)C)C(=O)N(C)[C@@H](CC(=O)OCC23CC4CC(CC(C4)C2)C3)C(=O)N(C)[C@@H]([C@@H](C)CC)C(=O)N1C`, the Activity with CHO [1] is reported as 78; in the experiment on CHO [2] it was 1.4; with CHO [3] it was 6.9; with CHO [4] it was 7.4; in the experiment with KB [5] it was 1.3; with KB [6], 3.

In the case of `CC[C@@H](C)[C@H]1C(=O)NCC(=O)N(C)[C@@H](C(C)C)C(=O)N[C@@H](Cc2ccc(OC)cc2)C(=O)O[C@@H](C)C(=O)N2CCCC[C@H]2C(=O)N(C)[C@@H](C(C)C)C(=O)N[C@@H](C(C)C)C(=O)N(C)[C@H](CC(=O)NCC(C)(C)C)C(=O)N(C)[C@@H]([C@@H](C)CC)C(=O)N1C`, the Activity with CHO [1] is listed as 358; in the experiment with CHO [2], 95; in the experiment on CHO [3], 8; with CHO [4], 13; with KB [5] it was 2.2; in the experiment on KB [6] it was 82.

For the molecule `CC[C@H](C)[C@H]1C(=O)NCC(=O)N(C)[C@@H](C(C)C)C(=O)N[C@@H](Cc2ccc(OC)cc2)C(=O)O[C@@H](C)C(=O)N2CCCC[C@H]2C(=O)N(C)[C@@H](C(C)C)C(=O)N[C@@H](C(C)C)C(=O)N(C)[C@@H](CC(=O)NC[Si](C)(C)C)C(=O)N(C)[C@@H]([C@@H](C)CC)C(=O)N1C`, the Activity worked out at 336 with CHO [1]; 81 in the experiment with CHO [2]; 7.4 in the experiment with CHO [3]; 11 in the experiment on CHO [4]; 1.3 in the experiment with KB [5]; 123 in the experiment on KB [6].

Turning to `CC[C@H](C)[C@H]1C(=O)NCC(=O)N(C)[C@@H](C(C)C)C(=O)N[C@@H](Cc2ccc(OC)cc2)C(=O)O[C@@H](C)C(=O)N2CCCC[C@H]2C(=O)N(C)[C@@H](C(C)C)C(=O)N[C@@H](C(C)C)C(=O)N(C)[C@@H](CC(=O)OC(C)(C)C)C(=O)N(C)[C@@H]([C@@H](C)CC)C(=O)N1C` (cyclo(G[NMeV]Y(Me)[Lac][Pip][NMeV]V[NMeD](OtBu)[NMeI][NMeI])), the Activity with CHO [1] turned out to be 333; with CHO [2], 66; in the experiment on CHO [3], 5.4; in the experiment with CHO [4], 7; in the experiment with KB [5], 3.6; in the experiment on KB [6], 196.

In the case of `CC[C@@H](C)[C@H]1C(=O)NCC(=O)N(C)[C@@H](C(C)C)C(=O)N[C@@H](Cc2ccc(OC)cc2)C(=O)O[C@@H](C)C(=O)N2CCCC[C@H]2C(=O)N(C)[C@@H](C(C)C)C(=O)N[C@@H](C(C)C)C(=O)N(C)[C@H](CC(=O)NC23CC4CC(CC(C4)C2)C3)C(=O)N(C)[C@@H]([C@@H](C)CC)C(=O)N1C`, the Activity in the experiment on CHO [1] came to 290; in the experiment with CHO [2], 92; in the experiment with CHO [3] it was 7.7; with CHO [4], 8; with KB [5], 3.7; with KB [6], 772.

Turning to `CC[C@@H](C)[C@H]1C(=O)NCC(=O)N(C)[C@@H](C(C)C)C(=O)N[C@@H](Cc2ccc(OC)cc2)C(=O)O[C@H](C)C(=O)N2CCCC[C@H]2C(=O)N(C)[C@@H](C(C)C)C(=O)N[C@@H](C(C)C)C(=O)N(C)[C@H](CC(=O)NCC(C)(C)C)C(=O)N(C)[C@@H]([C@@H](C)CC)C(=O)N1C`, the Activity with CHO [1] is on record as 155; with CHO [2], 11; with CHO [3] it was 7.4; with CHO [4], 12; in the experiment with KB [5], 1.1; in the experiment with KB [6], 2.3.

For the molecule `CC[C@H](C)[C@H]1C(=O)NCC(=O)N(C)[C@@H](C(C)C)C(=O)N[C@@H](Cc2ccc(OC)cc2)C(=O)O[C@@H](C)C(=O)N2CCCC[C@H]2C(=O)N(C)[C@@H](C(C)C)C(=O)N[C@@H](C(C)C)C(=O)N(C)[C@@H](CC(=O)OCCC(C)(C)C)C(=O)N(C)[C@@H]([C@@H](C)CC)C(=O)N1C`, the Activity in the experiment with CHO [1] is 292; in the experiment on CHO [2], 17; with CHO [3], 6.7; in the experiment on CHO [4], 7.9; in the experiment with KB [5], 1.7; in the experiment with KB [6], 25.

Regarding `CC[C@@H](C)[C@H]1C(=O)NCC(=O)N(C)[C@@H](C(C)C)C(=O)N[C@@H](Cc2ccc(OC)cc2)C(=O)O[C@@H](C)C(=O)N2CCCC[C@H]2C(=O)N(C)[C@@H](C(C)C)C(=O)N[C@@H](C(C)C)C(=O)N(C)[C@H](CC(=O)NCCC(C)C)C(=O)N(C)[C@@H]([C@@H](C)CC)C(=O)N1C`, the Activity in the experiment with CHO [1] is 273; in the experiment with CHO [2] it was 83; with CHO [3], 7.7; in the experiment on CHO [4], 8.6; in the experiment with KB [5] it was 1.5; with KB [6] it was 54.

As for `CC[C@@H](C)[C@H]1C(=O)NCC(=O)N(C)[C@@H](C(C)C)C(=O)N[C@@H](Cc2ccc(OC)cc2)C(=O)O[C@H](C)C(=O)N2CCCC[C@H]2C(=O)N(C)[C@@H](C(C)C)C(=O)N[C@@H](C(C)C)C(=O)N(C)[C@H](CC=O)C(=O)N(C)[C@@H]([C@@H](C)CC)C(=O)N1C`, the Activity in the experiment on CHO [1] came to 28; in the experiment with CHO [2], 1.1; in the experiment on CHO [3], 4.6; with CHO [4], 8.2.

`CC[C@H](C)[C@H]1C(=O)NCC(=O)N(C)[C@@H](C(C)C)C(=O)N[C@@H](Cc2ccc(OC)cc2)C(=O)O[C@H](C)C(=O)N2CCCC[C@H]2C(=O)N(C)[C@@H](C(C)C)C(=O)N[C@@H](C(C)C)C(=O)N(C)[C@@H](CC(=O)NCCC(C)C)C(=O)N(C)[C@@H]([C@@H](C)CC)C(=O)N1C`: the Activity in the experiment on CHO [1] came to 126; in the experiment with CHO [2], 3.7; in the experiment with CHO [3], 5.8; in the experiment on CHO [4] it was 8.1; with KB [5], 1; in the experiment on KB [6], 1.1.
